The values below come from ChEMBL document CHEMBL3046906, “Effects of acibenzolar-S-methyl on the suppression of Fusarium wilt of cyclamen” (Crop Prot, 2006).

SMILES strings stand for the structures. Active and inactive are the calls of the source. The rule behind the calls is not given here.

Data set [1] has as its system Fusarium oxysporum f. sp. cyclaminis. As to the kind of experiment: Antifungal activity against 1 CFU of Fusarium oxysporum f. sp. cyclaminis infested cyclamen seedlings assessed as increase in foliar dry mass at 50 ug a.i/ml applied as spray relative to untreated control. Type of data set: functional, organism-based.
The test system of data set [2] is Cyclamen persicum. As to the kind of experiment: Phytotoxicity in Cyclamen persicum seedlings assessed as visible damage on leaves at 10 to 50 ug a.i/ml applied as spray. The class given is organism-based. As to conditions: in vivo, topical_or_ocular.
For data set [3], the system named is Fusarium oxysporum f. sp. cyclaminis. As to the kind of experiment: Antifungal activity against Fusarium oxysporum f. sp. cyclaminis infested cyclamen seedlings assessed as increase in foliar dry mass at 10 to 50 ug a.i/ml applied as spray. Type of data set: functional, organism-based.
Data set [4] has the same test system. As to the kind of experiment: Antifungal activity against […] of Fusarium oxysporum f. sp. cyclaminis infested cyclamen seedlings assessed as delay in development of disease symptoms at 50 ug a.i/ml applied as spray relative to untreated control. The class given is functional, organism-based.
For data set [5] the test system is unchanged. Description: Antifungal activity against Fusarium oxysporum f. sp. cyclaminis infested cyclamen seedlings assessed as delay in development of disease symptoms at 50 ug a.i/ml applied as spray. The class given is functional.
For data set [6] the test system is unchanged. Description: Antifungal activity against 1 CFU of Fusarium oxysporum f. sp. cyclaminis infested cyclamen seedlings assessed as delay in development of decrease severity at 50 ug a.i/ml applied as spray. The class given is functional, organism-based.
Data set [7] has as its system Cyclamen persicum. Description: Phytotoxicity in Cyclamen persicum seedlings assessed as decrease in foliar dry mass at 50 ug a.i/ml applied as spray. The settings on record: in vivo, other. Also noted: scale not given: the % may be the effect or the level left. Type of data set: organism-based.
Data set [8] has as its system Cyclamen persicum. Description: Phytotoxicity in Cyclamen persicum seedlings assessed as decrease in effect on flower quality at 10 to 50 ug a.i/ml applied as spray. The class given is organism-based. The settings on record: in vivo, other.
Data set [9] has as its system Cyclamen persicum. As to the kind of experiment: Phytotoxicity in Cyclamen persicum seedlings assessed as decrease in foliar dry mass at 10 to 50 ug a.i/ml applied as spray. The settings on record: in vivo, other. The class given is organism-based. Also noted: scale not given: the % may be the effect or the level left.
For data set [10], the system named is Cyclamen persicum. As to the kind of experiment: Phytotoxicity in Cyclamen persicum seedlings assessed as decrease in effect on flower number at 10 to 50 ug a.i/ml applied as spray. Type of data set: organism-based. As to conditions: in vivo, other.

Consider `CSC(=O)c1cccc2nnsc12` [ACIBENZOLAR-S-METHYL], for which the result in [1], in data set [3], in data set [4] and in data set [6] was Active. Moreover, the Activity result in the data set with Cyclamen persicum [2] was “Non-toxic”; in the data set on Cyclamen persicum [7], 65%; in the data set on Cyclamen persicum [8], “Non-toxic”; in the data set on Cyclamen persicum [9], 36%; in the data set on Cyclamen persicum [10], “Non-toxic”. Moreover, the Time in data set [5] was found to be 20 days.
